“Also recorded” adds a separate entry of the source. Where a SMILES comes first, the peptide text is derived from it. [ ]: non-standard residue; d: D form. dNMeA = CN[C@H](C)C(=O)O; Sar = CNCC(=O)O
Experiments:
[1] = In vitro metabolic stability in mouse liver microsomes
[2] = target: T1, KOR (Mus musculus, UniProt P33534); assay: 55° C. warm-water tail-withdrawal assay, antagonism of U50,488-induced antinociception; format: in vivo; conditions: for KOR antagonism: i.c.v. pretreatment, U50,488 10 mg/kg i.p.
T1 construct: from tissue; host or cells: living C57Bl/6 mice (whole animal; CNS and periphery)
T1 sequence (P33534 whole entry): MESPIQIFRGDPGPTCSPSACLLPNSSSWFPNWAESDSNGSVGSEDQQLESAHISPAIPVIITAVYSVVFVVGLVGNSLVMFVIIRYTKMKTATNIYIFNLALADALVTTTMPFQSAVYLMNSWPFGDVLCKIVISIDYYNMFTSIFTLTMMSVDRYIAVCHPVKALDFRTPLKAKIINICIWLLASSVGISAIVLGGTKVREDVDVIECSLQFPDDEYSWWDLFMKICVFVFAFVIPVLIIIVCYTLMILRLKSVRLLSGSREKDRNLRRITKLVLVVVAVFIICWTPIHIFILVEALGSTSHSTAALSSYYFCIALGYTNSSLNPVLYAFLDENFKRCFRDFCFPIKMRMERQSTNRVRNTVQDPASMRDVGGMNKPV

[3] = target: T2, δ opioid receptor (Mus musculus, UniProt P32300); assay: 55° C. warm-water tail-withdrawal assay, antagonism of SNC80-mediated antinociception; format: in vivo; conditions: 30 nmol i.c.v., 2.5 h pretreatment
T2 construct: from tissue; host or cells: living C57Bl/6 mice (whole animal)
T2 sequence (P32300 whole entry): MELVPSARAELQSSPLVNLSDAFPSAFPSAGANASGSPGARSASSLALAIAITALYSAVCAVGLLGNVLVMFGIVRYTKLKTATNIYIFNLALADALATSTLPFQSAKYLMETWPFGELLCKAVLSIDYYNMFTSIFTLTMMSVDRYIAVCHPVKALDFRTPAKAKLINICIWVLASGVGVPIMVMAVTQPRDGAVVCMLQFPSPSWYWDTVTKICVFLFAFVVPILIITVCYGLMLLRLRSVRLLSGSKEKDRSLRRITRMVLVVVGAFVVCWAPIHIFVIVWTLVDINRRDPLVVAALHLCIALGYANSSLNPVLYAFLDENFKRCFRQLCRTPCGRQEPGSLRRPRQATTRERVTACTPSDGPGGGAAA

[4] = target: T3, μ opioid receptor (Mus musculus, UniProt P42866); assay: 55° C. warm-water tail-withdrawal assay, antagonism of morphine-mediated antinociception; format: in vivo; conditions: 30 nmol i.c.v., 2.5 h pretreatment
T3 construct: mice are pretreated with the compound of the invention; from tissue; host or cells: living C57Bl/6 mice (whole animal)
T3 sequence (P42866 whole entry): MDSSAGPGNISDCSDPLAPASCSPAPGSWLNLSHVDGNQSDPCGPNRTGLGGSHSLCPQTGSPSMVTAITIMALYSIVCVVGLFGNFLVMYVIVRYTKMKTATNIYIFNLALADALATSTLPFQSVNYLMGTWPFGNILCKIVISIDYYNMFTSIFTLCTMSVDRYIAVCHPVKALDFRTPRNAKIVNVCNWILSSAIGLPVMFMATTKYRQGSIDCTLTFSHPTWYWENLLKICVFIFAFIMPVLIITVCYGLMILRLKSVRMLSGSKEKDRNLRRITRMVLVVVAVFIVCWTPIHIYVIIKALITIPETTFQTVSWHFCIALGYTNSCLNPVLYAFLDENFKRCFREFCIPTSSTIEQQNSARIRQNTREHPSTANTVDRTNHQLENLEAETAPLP

[5] = test system: mice; assay: Reinstatement of extinguished morphine conditioned place preference; conditions: for stress-induced reinstatement of morphine CPP, peripheral pretreatment: 10 mg/kg i.p., nor-BNI once 24 h prior, cyclo[D-Phe-Pro-Sar-Phe] twice, 2.5 h prior to forced swimming daily
[6] = test system: C57Bl/6 mice; assay: Reinstatement of extinguished cocaine conditioned place preference
[7] = test system: KOR KO mice; conditions: 200 nmol i.c.v.; β-FNA 5 mg/kg s.c. −24 h
[8] = test system: mice; assay: Reinstatement of extinguished ethanol conditioned place preference; format: in vivo, mouse; conditions: 0.01 nmol i.c.v.
Text: Similarly mice were place-conditioned using ethanol in a conditioned place-preference assay [Sperling, R. E., Gomes, S. M., Sypek, E. I., Carey, A. N. and McLaughlin, J. P., 2010. Endogenous kappa-opioid mediation of stress-induced potentiation of ethanol-conditioned place preference and self-administration. Psychopharmacology, 210, 199-209] with a biased conditioning paradigm (see McLaughlin, J. P., Ganno M. L., Eans, S. O., Mizrachi, E. and Paris, J. P., 2014. HIV-1 Tat protein exposure potentiates ethanol reward and reinstates extinguished ethanol-conditioned place preference. Current HIV Research, 12(6), 415-423). […] Mice were then pretreated once daily for two days with vehicle (50% DMSO in 0.9% saline, i.c.v.) or cyclo[D-Phe-Pro-Sar-Phe] (0.01 nmol, i.c.v.) and exposed to two days of forced swim stress or an additional cycle of ethanol place conditioning as described above.

[9] = test system: MOR KO mice; assay: Opioid receptor selectivity of antinociception, tail-withdrawal assay in MOR KO mice; format: in vivo, mouse; conditions: i.c.v.
[10] = liver microsomes, apparent t1/2 in mouse liver microsomes, mouse liver microsomes, 37° C.

O=C1N[C@H](Cc2c[nH]c3ccccc23)C(=O)N[C@@H](Cc2ccccc2)C(=O)N2CCC[C@@H]2C(=O)N[C@H]1Cc1ccccc1 [[D-Trp]CJ-15,208, reference compound] (cyclo(F[dP]F[dW]))
half-life ([1]; microsomes): 11 min

C[C@@H]1C(=O)N[C@@H](Cc2ccccc2)C(=O)N[C@H](Cc2ccccc2)C(=O)N2CCC[C@H]2C(=O)N1C [cyclo[D-Phe-Pro-D-NMe-Ala-Phe]] (cyclo(F[dF]P[dNMeA]))
half-life [1, 10]: 12 min | KOR antagonism [2]: did not exhibit KOR antagonist activity

CN1CC(=O)N[C@@H](Cc2ccccc2)C(=O)N[C@H](Cc2ccccc2)C(=O)N2CCC[C@H]2C1=O [cyclo[D-Phe-Pro-Sar-Phe]] (cyclo(F[dF]P[Sar]))
SNC80-mediated antinociception after pretreatment [3]: 87.1±7.7% | morphine-mediated antinociception after pretreatment [4]: 100±0% | morphine-induced reinstatement of morphine-CPP, lower dose ([5]; 0.01 nmol i.c.v.): did not have significant effects | reinstatement of extinguished morphine CPP by compound alone ([5]; 0.01 nmol i.c.v.): did not directly reinstate extinguished CPP | stress-induced reinstatement of morphine CPP ([5]; 0.01 nmol i.c.v., −2.5 h): prevented stress-induced reinstatement of morphine CPP | morphine-induced reinstatement of morphine-CPP ([5]; 0.03 nmol i.c.v., 5 min pretreatment): prevented morphine-induced reinstatement of morphine-CPP | stress-induced reinstatement of morphine CPP, peripheral pretreatment [5]: prevented stress-induced reinstatement | cocaine-induced reinstatement of cocaine CPP ([6]; 0.01 nmol i.c.v., 5 min pretreatment): prevented cocaine-induced reinstatement | reinstatement of cocaine CPP by compound alone ([6]; 0.01 nmol i.c.v., no stress or cocaine): did not induce reinstatement | stress-induced reinstatement of cocaine CPP ([6]; 0.01 nmol i.c.v., −1.5 h): prevented stress-induced reinstatement of cocaine CPP | stress-induced reinstatement of cocaine CPP, oral ([6]; 30 mg/kg and 60 mg/kg p.o., −2.5 h): prevented stress-induced reinstatement of cocaine CPP | stress- and cocaine-induced reinstatement of CPP after oral administration (FIG. 10B) ([6]; p.o.): prevented both stress- and cocaine-induced reinstatement of CPP after oral administration | half-life [1, 10]: 60 min | antinociception in KOR KO mice pretreated with MOR-selective antagonist β-FNA [7]: completely inhibited | stress- and ethanol-induced reinstatement of ethanol CPP (FIG. 11) [8]: prevented both stress- and ethanol-induced reinstatement of ethanol CPP | stress-induced reinstatement of ethanol CPP ([8]; −2 h): prevented stress-induced reinstatement of ethanol CPP | antinociception in opioid receptor KO mice ([9]; 1 nmol dose): significantly impaired only in MOR KO mice | antinociception ED50 (and 95% C.I.) in MOR KO mice ([9]; MOR KO mice): 58.2 (17.4-558) nmol | antagonism of U50,488-induced antinociception after i.p. administration ([2]; 2.5 h pretreatment, i.p.): dose-dependent antagonism of U50,488-induced antinociception | KOR antagonism [2]: significantly antagonized KOR in a dose-dependent manner; also recorded: significant antagonism of only the KOR-selective agonist U50,488 | dose giving significant blockade of U50,488-induced antinociception (KOR antagonism) ([2]; i.c.v., 2.5 h pretreatment): 1 pmol | KOR antagonism after oral administration ([2]; p.o., 2.5 h after administration): demonstrated KOR antagonism | antagonism of centrally administered (i.c.v.) U50,488 after oral administration ([2]; p.o., U50,488 i.c.v.): dose-dependently antagonized i.c.v. U50,488

Oc1ccc2c3c1O[C@H]1c4[nH]c5c(c4C[C@@]4(O)[C@@H](C2)N(CC2CC2)CC[C@]314)C[C@@]1(O)[C@H]2Cc3ccc(O)c4c3[C@@]1(CCN2CC1CC1)[C@H]5O4 [nor-BNI, nor-binaltorphimine, reference compound]
stress-induced reinstatement of morphine CPP, peripheral pretreatment [5]: prevented stress-induced reinstatement
